Consider two molecules from paper PMC5915369 (Anticancer research, 2015).

Series [1] relates to HIF1α transcriptional activity. The series is classed as cell-based. The settings on record: Homo sapiens, 24 h, read-out: Menu IC50 ± SEM.
Series [2] relates to platelet aggregation. The note with it: could lead to internal bleeding side effects; cited from earlier work.

One may read the IC50 as the point on the concentration scale where inhibition reaches its midpoint. `CN1C(=O)[C@]2(Cc3cn([C@]45C[C@@]67SS[C@@](CO)(C(=O)N6[C@H]4Nc4ccccc45)N(C)C7=O)c4ccccc34)SS[C@@]1(CO)C(=O)N2C` [Chetomin]: the IC50 in series [1] stood at 40 ± 10 nM.
On to `OCc1ccc(-c2nn(Cc3ccccc3)c3ccccc23)o1` [YC-1, 3-(5′-hydroxymethyl-2′-furyl)-1-benzyl indazole], for which the “inhibition of platelet aggregation” value in series [2] is reported as “strong inhibition of platelet aggregation”.
